According to patent US20250049904A1, “IMMUNOSTIMULATORY COMPOSITIONS” (VICTORIA LINK LIMITED, priority 2021, published 2025):

Tests used:
[1] = system: NKT cells in the liver; experiment: NKT cell phenotype in the liver after LPX-mRNA vaccination (CD1d/α-GalCer tetramer binding, PD-1); type: in vivo, C57BL/6 mice; conditions: correlates with dose
Protocol: Dose response of LPX-mOVA-α-GalCer versus LPX-mOVA-CI058 vaccines. Analysis was in C57BL/6 mice, without transfer of OT-I cells, so endogenous T cell responses were monitored on a normal T cell repertoire. Groups of 5 mice were used, and vaccines were administered intravenously. After 28 days, mice were killed and liver tissue collected for analysis of induced T cell response by flow cytometry. […] At the same timer, NKT cells in the liver were also evaluated using fluorescent CD1d/α-GalCer tetramers. […] (B) Graph showing mean level of expression of the “invariant” NKT cell-associated TCR for each treatment group (±SEM), defined as level of binding of fluorescent CD1d/α-GalCer tetramers and expressed as mean fluorescence index. ****P<0.0001 (C) Graph showing mean level of expression of PD-1 on NKT cells for each treatment group (±SEM). **P<0.01
(§1) Lymphocytes were stained with monoclonal antibodies for: CD8a (53-6.7), Ly5.1 (A20), CD44 (IM7), CXCR6 (SA051D1), CX3CR1 (SA011F11), from BioLegend (Australian Biosearch, Karrinyup, WA. Australia), and CD62L (MEL-14) and CD69 (H1.2F3), from eBioscience (Jomar Life Research, Scoresby, VIC, Australia). […] Single-color positive control samples were used to adjust compensation and cells were analyzed by flow cytometry on a LSR Fortessa (BD Biosciences), or LSRII SORP using Flowjo software (Tree Star Inc.).

[2] = system: liver TRM cells; experiment: LPX-mOVA-CI058 vaccination of NKT cell-deficient mice; liver TRM cells; type: in vivo, TRAJ18-deficient mice; conditions: LPX vaccine with CI058, 28 days after vaccination
Protocol: Groups (n=3) of C57BL/6 mice or TRAJ18-deficient mice were vaccinated with LPX-mOVA-CI058, or injected with PBS vehicle. The TRAJ18-deficient strain cannot complete the TCR rearrangement required to form the TCR-alpha chain used by type I NKT cells, and therefore are deficient in these cells, while the remaining T cell repertoire is largely intact. No prior transfer of OT-I cells was conducted, so results reflect endogenous T cell responses to vaccination. Mean number of TRM cells in liver 28 days after vaccination for each treatment group (±SEM) are shown; dots represent individual mice. **P<0.01,
C57BL/6 (B6), OT-I^1, and TRAJ18^−/− mice were bred and maintained at the Department of Microbiology and Immunology, The University of Melbourne, or the BRU, Malaghan Institute of Medical Research, New Zealand. […]
as §1

CCCCCCCCCCCCCCCCCCCCCCCCCC(=O)N[C@@H](CO[C@H]1O[C@H](CSCC(=O)Nc2ccc(C3=C4C(C)=CC(C)=[N+]4[B-](F)(F)n4c(C)cc(C)c43)cc2)[C@H](O)[C@H](O)[C@H]1O)[C@H](O)[C@H](O)CCCCCCCCCCCCCC [CI058, (2S,3S,4R)-1-(6-Deoxy-6-((2-((4-(5,5-difluoro-1,3,7,9-tetramethyl-5H-4λ4,5λ4-dipyrrolo[1,2-c:2′,1′-f][1,3,2]diazaborinin-10-yl)phenyl)amino)-2-oxoethyl)thio)-α-D-galactopyranosyloxy)-2-hexacosanoylamino-3,4-octadecandiol]
expression of NKT cell-associated invariant TCR in liver ([1]; CD1d/α-GalCer tetramers): significantly reduced expression
expression of PD-1 on liver NKT cells [1]: significantly increased expression
liver TRM cell accumulation in NKT cell-deficient mice [2]: no liver TRM cell accumulation is induced
